According to patent US5863913A, “Aromatic compound and pharmaceutical composition” (Kureha Chemical Industry Co., Ltd., priority 1996, dated 1999):

Legend:
[1] = molecular target: T1, angiotensin II receptor subtype 1 (AT1) (Oryctolagus cuniculus, UniProt P34976); test: Binding to receptors: angiotensin II receptor subtype 1 (AT1); design: species or system rabbits (adrenal glands); details: rabbit adrenal glands, tracer 3H-angiotensin II
T1 construct: receptor : from adrenal glands in rabbits; from tissue; host or cells: rabbit adrenal glands
T1 sequence (P34976 1-359): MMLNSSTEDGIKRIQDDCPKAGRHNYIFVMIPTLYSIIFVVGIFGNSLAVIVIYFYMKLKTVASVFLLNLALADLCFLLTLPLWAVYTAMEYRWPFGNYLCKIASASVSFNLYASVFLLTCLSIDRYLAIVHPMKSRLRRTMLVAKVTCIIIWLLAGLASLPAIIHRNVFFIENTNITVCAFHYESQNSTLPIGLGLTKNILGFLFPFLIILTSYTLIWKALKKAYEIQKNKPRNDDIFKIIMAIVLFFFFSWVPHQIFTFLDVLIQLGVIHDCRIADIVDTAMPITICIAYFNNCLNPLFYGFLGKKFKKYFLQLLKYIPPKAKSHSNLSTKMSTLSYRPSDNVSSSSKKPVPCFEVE
Description: (§1) In this Example, the affinity to the angiotensin II receptor subtype 1 or subtype 2 was evaluated by a binding assay in accordance with the method described in Biochem. Pharmacol., 33, 4057-4062 (1984).
(§2) Specifically, the measurement of the total binding in the presence of each drug was performed as follows:
(§3) A mixture (final volume=0.25 ml) of a drug in a given concentration (the drug was dissolved in DMSO, and diluted to a double volume with a buffer attached to a drug discovery system to prepare a sample for the assay; 0.025 ml), a tracer (0.025 ml), and receptors (0.2 ml) was incubated [in the case of the angiotensin II receptor subtype 1 (AT1), at room temperature for 3 hours, and in the case of the subtype 2 (AT2), at 37° C. for 1 hour]. Then, the reaction mixture was filtered with suction (GF/C filter was used in AT1, and GF/B filter was used in AT2). The filter papers after filtration with suction (the tracer bound to the receptors) were counted by a γ-well counter (ARC-500, Aloka). The non-specific bindings were measured by repeating the above method, except that a large excess amount of a displacer was added. The specific binding of the drug in the given concentration was calculated by subtracting the non-specific binding from the total binding, respectively.
receptor : from adrenal glands in rabbits
tracer : ^3 Hangiotensin II

[2] = test system: kidney disease model rats; test: Action to lower blood pressure in kidney disease model rats (tail cuff); format: in vivo, Sprague-Dawley female rats; details: for Blood Pressure: systolic, average of 8 rats, 20 mg/kg with drinking water, two days after administration, control 210
Description: (§4) The compounds of the present invention and the reference substance were administered with drinking water to kidney disease model rats, and the action of lowering the blood pressure was observed. The kidney disease model rats were prepared by a ligature of branches of renal artery in accordance with a conventional method. Namely, the left hilum renalis of Sprague-Dawley female rats was exposed under anesthesia, and one of four secondary branches of the renal artery was left unligated, while the remaining three branches were ligated, respectively. After a week, the hilum renalis (artery, vein, and ureter) of the right kidney were further ligated to thereby prepare rats whose renal function was lowered to approximately 1/8 of the normal function. Each group consisted of eight rats. The drugs to be tested (20 mg/kg) were administered to each administering group, and only water was administered to a control group. Two days after the administration, the systolic blood pressure was measured by the tail cuff method using a blood pressure measuring apparatus (UR5000; Ueda).

[3] = molecular target: T2, angiotensin II receptor subtype 2 (AT2) (Bos taurus, UniProt G5E6F7); test: Binding to receptors: angiotensin II receptor subtype 2 (AT2); details: bovine cerebellar cortex, tracer 125I-Tyr4-angiotensin II
T2 construct: receptor : from cerebellar cortex in bovine; from tissue; host or cells: bovine cerebellar cortex
T2 sequence (G5E6F7 1-362): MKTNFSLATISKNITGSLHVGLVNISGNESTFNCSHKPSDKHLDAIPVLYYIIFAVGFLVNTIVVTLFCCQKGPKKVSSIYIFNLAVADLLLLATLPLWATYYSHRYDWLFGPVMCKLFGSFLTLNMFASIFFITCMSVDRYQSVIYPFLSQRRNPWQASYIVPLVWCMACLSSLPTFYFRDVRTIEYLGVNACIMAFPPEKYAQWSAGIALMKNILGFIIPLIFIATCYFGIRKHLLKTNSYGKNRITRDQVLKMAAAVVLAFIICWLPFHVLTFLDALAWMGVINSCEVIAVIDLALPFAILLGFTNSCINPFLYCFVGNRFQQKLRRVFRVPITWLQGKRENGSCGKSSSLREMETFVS
Description: as §1, §2, §3
In AT1 and AT2, the percentages found to inhibit the bindings of radioactive ligands (tracer) to receptors by the drugs to be tested (IC50 value of concentration to show 50% inhibition, or binding inhibition % in 100 μM) were measured, using the drugs to be tested and control drugs in the given concentration.
receptor : from cerebellar cortex in bovine
tracer : ^125 ITyr^4angiotensin II
control drug : angiotensin II (human)
(displacer) : angiotensin II (human)

[4] = test system: kidney disease model rats; test: Renal function indicatory value in kidney disease model rats; format: in vivo, Sprague-Dawley female rats; details: 20 mg/kg/day with drinking water, six weeks; for Creatinine clearance: 24 hours urine, control 0.22; for Creatinine / Blood urea nitrogen: serum; for Creatinine: control 2.0; for Blood urea nitrogen: control 100
Description: as §4, with “The” for “The compounds of the present invention and the reference substance were administered with drinking water to kidney disease model rats, and the action of lowering the blood pressure was observed. The”
The rats in each group were allowed to freely take up food. […] To the rats in the control group, only water was administered every day. After six weeks, 0.2 ml of blood was collected from the carotid artery of the rats under anesthesia, and centrifuged to obtain serum. Using 25 μl of the serum, the serum creatinine (Scr) was measured by a creatinine analytical instrument (Beckman). Using 10 μl of the serum, the blood urea nitrogen (BUN) was measured by a BUN analytical instrument (Beckman). The creatinine clearance was evaluated as follows:
After the serum creatinine measurement, rats were placed in urinary metabolic cages for 24 hours to collect urine. A urinary creatine concentration (Ucr) was measured by a creatinine analytical instrument, and a total volume of urination (Uvol) was also measured. The creatinine clearance (CCr) was calculated by the following formula: [formula]

[5] = test system: kidney disease model rats; test: Survival time of kidney diseased animals; format: in vivo, Sprague-Dawley female rats; details: 20 mg/kg/day with drinking water, observation period eight weeks (upper limit); control 5.0
Description: as §4
The kidney disease model rats were prepared as in Example 54. Twenty-two groups (8 rats per group) were prepared in a manner such that there was no major difference between the groups in the serum creatinine value and the blood urea nitrogen value indicating renal function. The rats in each group were allowed to freely take up food. […] To the rats in the control group, only water was administered every day. If kidney diseases are aggravated, the rat will die of uremia. Thus, the survival time was observed as a comprehensive indication of the improvement of the effect on the kidney diseases. The observation period was eight weeks. Thus if all rats survived, the average survival time is eight weeks, and is an upper limit.

[6] = test system: ICR female mice; test: Acute toxicity, single oral dose in mice; details: mouse, in vivo
Description: The aromatic compounds of the formula (I) according to the present invention were orally administered to mice at the dose of 500 mg/kg, but no fatalities were observed over a period of one week.
Five-week-old ICR female mice (5 mice per group) were bred for acclimation for a week. Then, the compounds of the present invention were dissolved in water, and orally administered to the mice in a single dosage (500 mg/kg).

[7] = Oral absorption (amount of compound in rat serum by HPLC, area under curve); format: in vivo, Sprague-Dawley female rats; details: single dosage 160 mg/kg in water, 0.5 to 24 hours, average of 3 rats
Description: Twelve-week-old Sprague-Dawley female rats (3 rats per group) were bred for acclimation for a week. Then, the compounds of the present invention and a reference substrate were dissolved in water, and orally administered to the rats in a single dosage (160 mg/kg). After 0.5 hour, 1 hour, 2 hours, 4 hours, 6 hours, 8 hours, and 24 hours, the amounts of each compound (ng) per 1 ml of serum were measured using HPLC. Curves were obtained from the relation between an elapsed time after administration and the amount of the compound in serum at each elapsed time, respectively, and an average of the areas under the curves was calculated.
As a reference substance, Compound No. 184 disclosed in Japanese Unexamined Patent Publication (Kokai) No. 8-48651 was used. Compound No. 184 corresponds to the compound of the formula (I) wherein R^1 =nBu, A=N, Z=C, R^2 =CO, R^3 =NC4 H8 O, R^4 =H, R^5 =Me, and R^6 =Me.

Row | AUC at 24 h [7] [ng·h/mL] | SMILES | inhibition at 100 µM [1] [%] | Blood Pressure [2] [mmHg] | inhibition at 100 µM [3] [%] | Creatinine clearance [4] [mL/min] | Creatinine [4] [mg/dL] | Blood urea nitrogen [4] [mg/dL] | Average survival time [5] [weeks] | Number of deaths/number of survivals [6] | action of lowering the blood pressure ([2]; result in words, in comparison with the control group)
1 | – | CCCCC(=O)N(Cc1ccc(C(=O)O)cc1)c1cc(C(=O)N2CCN(C)CC2)ccc1N(C)C [Compound No. 10, 3-[[(4-carboxyohenyl)methyl]valeramido]-4-dimethylaminobenzoic acid 4'-methylpiperazide] | 13 | 206 | 0 | 0.32 | 1.6 | 81 | 6.9 | 0/5 | –
2 | – | CCCCCCCC(=O)N(Cc1ccc(C(=O)O)cc1)c1cc(C(=O)N2CCN(C)CC2)ccc1N(C)C [Compound No. 14, 3-[[(4-carboxyphenyl)methyl]n-octanamido]-4-dimethylaminobenzoic acid 4'-methylpiperazide] | 0 | 205 | 0 | 0.27 | 1.7 | 86 | 6.3 | 0/5 | –
3 | – | CCCCC(=O)N(Cc1ccc(C(=O)OCC)cc1)c1cc(C(=O)N2CCN(C)CC2)ccc1C(C)C [Compound No. 16, 3-[[(4-ethoxycarbonylphenyl)methyl]valeramido]-4-i-propylbenzoic acid 4'-methylpiperazide] | 0 | 202 | 0 | 0.33 | 1.5 | 78 | 6.9 | 0/5 | –
4 | 622 | CCCCC(=O)N(Cc1ccc(C(=O)O)cc1)c1cc(C(=O)N2CCOCC2)ccc1N(C)C [reference substance, 3-N-[[(4-carboxyphenyl)methyl]valeramido]-4-dimethylaminobenzoic acid morpholide, reference compound] | – | – | – | – | – | – | – | – | –
5 | – | CCCCc1nc(Cl)c(CO)n1Cc1ccc(-c2ccccc2-c2nn[nH]n2)cc1 [DuP753, reference compound] | – | 130 | – | 0.32 | 1.6 | 80 | 6.9 | – | clearly exhibited the action of lowering the blood pressure
6 | – | CCCCC(=O)N(Cc1ccc(C(=O)OCC(N)C(=O)OCC)cc1)c1cc(C(=O)N2CCOCC2)ccc1N(C)C (stereo not shown) [Compound No. 4, 3-N-[[[[4-(2'-amino-2'-ethoxycarbonyl)ethoxycarbonyl]phenyl]methyl]valeramido]-4-dimethyl aminobenzoic acid morpholide] | 11 | 204 | 0 | 0.37 | 1.4 | 72 | 6.9 | 0/5 | –
7 | – | CCCCC(=O)N(Cc1ccc(C(=O)O)cc1)c1cc(C(=O)N(CC)CCN(CC)CC)ccc1C(C)C [Compound No. 17] | 4 | 201 | 23 | 0.33 | 1.5 | 78 | 6.9 | 0/5 | –
8 | – | CCCCC(=O)N(Cc1ccc(C(=O)OC2CNC(C(=O)OCC)C2)cc1)c1cc(C(=O)N2CCOCC2)ccc1N(C)C (stereo not shown) [Compound No. 5, 4-dimethylamino-3-N-[[[[4-(2'-ethoxycarbonylpyrrolidin-4'-yloxy)carbonyl]phenyl]methyl]valeramido]benzoic acid morpholide] | 11 | 200 | 0 | 0.30 | 1.6 | 82 | 6.9 | 0/5 | –
